The results in this text go back to US11548888B2, “KRas G12C inhibitors” (Mirati Therapeutics, Inc., priority 2019, dated 2023).

What is called IC50 is the concentration that inhibits the measured activity by half.

In the test the target is T1, KRas G12C (Homo sapiens, UniProt P01116, G12C).
T1 construct: NCI-H358 cells (ATCC CRL-5807) express KRas G12C
T1 sequence (P01116 1-188 isoform P01116-2 G12C): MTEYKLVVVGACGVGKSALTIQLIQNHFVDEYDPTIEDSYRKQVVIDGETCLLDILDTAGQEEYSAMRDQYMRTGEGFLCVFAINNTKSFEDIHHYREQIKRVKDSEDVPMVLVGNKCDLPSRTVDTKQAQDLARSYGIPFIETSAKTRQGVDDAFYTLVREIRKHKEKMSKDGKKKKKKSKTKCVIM
Briefly: Inhibition of KRas G12C-dependent cell growth: Phospho-ERK in NCI-H358 cells. It is filed as cell-based. As to conditions: NCI-H358 cells expressing KRas G12C; Phospho-ERK (Thr202/Tyr204) normalized to GAPDH; 3 hours compound; 4 parameter fit. The protocol:
The cellular inhibition of KRAs G12C by exemplary compounds of the present invention was determined by measuring the amount of a downstream marker of KRas activity, phosphorylated ERK (“Phospho-ERK”).
NCI-H358 cells (ATCC CRL-5807) express KRas G12C and were grown in RPMI medium supplemented with 10% fetal bovine serum, penicillin/streptomycin and 10 mM HEPES. Cells were plated in poly-D-Lysine coated 96-well plates at a concentration of 50,000 cells/well and allowed to attach for 8-12 hours. Diluted compounds were then added at a final concentration of 0.5% DMSO. After 3 hours, the medium was removed, 150 μL of 4% formaldehyde was added and the plates were incubated for 20 minutes. The plates were washed with PBS, and permeabilized using 150 μL of ice cold 100% methanol for 10 minutes. Non-specific antibody binding to the plates was blocked using 100 μL Licor Blocking Buffer (Li-Cor Biotechnology, Lincoln Nebr.) for 1 hour at room temperature. Positive control samples and samples lacking cells were parallel processed with test samples as standards.
The amount Phospho-ERK was determined using an antibody specific for the phosphorylated form of ERK and compared to the amount of GAPDH. Primary antibodies used for detection were added as follows: Phospho-ERK (Cell Signaling cs9101) diluted 1:500 and GAPDH (Millipore MAB374) diluted 1:5000 in Licor block+0.05% Tween 20. The plates were incubated for 2 hours at room temperature. The plates were washed with PBS+0.05% Tween 20.
Secondary antibodies used to visualize primary antibodies were added as follows: Anti-rabbit-680 diluted 1:1000 and Anti-mouse-800 diluted 1:1000 in Licor Block+0.05% Tween 20 and incubated for 1 hour at room temperature. The plates were washed with PBS+0.05% Tween 20. A 100 μL aliquot of PBS was added to each well and the plates were read on a LICOR AERIUS plate reader.
The pERK(Thr202/Tyr204) signal was normalized with the GAPDH signal and percent of DMSO control values were calculated. IC50 values were generated using a 4 parameter fit of the dose response curve.
The molecule `C=C(F)C(=O)N1CCN(c2nc(OCC3CN(C)CC3(F)F)nc3c(F)c(-c4cccc5ccc(F)c(Cl)c45)ncc23)C[C@@H]1CC#N` (single isomer, unassigned) [Example 179] displayed a half-inhibitory concentration (IC50) of 0.224 µM.
The value for `C=C(F)C(=O)N1CCN(c2nc(OCC3CN(C)CC3(F)F)nc3c(F)c(-c4cccc5ccc(F)c(Cl)c45)ncc23)C[C@@H]1CC#N` (single isomer, unassigned) [Example 180] was 0.362 µM.
The value for `C=CC(=O)N1CCN(c2ncnc3cc(-c4cc(O)cc5ccccc45)ncc23)CC1` [Example 1, 1-(4-(7-(3-hydroxynaphthalen-1-yl)pyrido[4,3-d]pyrimidin-4-yl)piperazin-1-yl)prop-2-en-1-one] was 1.92 µM; that for `C=CC(=O)N1CCN(c2ncnc3cc(-c4cc(O)cc5ccccc45)ncc23)CC1C#N` (stereo not shown) [Example 2, 1-acryloyl-4-(7-(3-hydroxynaphthalen-1-yl)pyrido[4,3-d]pyrimidin-4-yl)piperazine-2-carbonitrile] was 0.325 µM; that for `C=CC(=O)N1CCN(c2ncnc3cc(-c4c(O)cccc4F)ncc23)CC1` [Example 3, 1-(4-(7-(2-fluoro-6-hydroxyphenyl)pyrido[4,3-d]pyrimidin-4-yl)piperazin-1-yl)prop-2-en-1-one] was 16 µM.
The value for `C=CC(=O)N1CCN(c2nc(OCCN3CCOCC3)nc3cc(-c4cc(O)cc5ccccc45)ncc23)CC1` [Example 4, 1-(4-(7-(3-hydroxynaphthalen-1-yl)-2-(2-morpholinoethoxy)pyrido[4,3-d]pyrimidin-4-yl)piperazin-1-yl)prop-2-en-1-one] was 3.43 µM.
In turn, `C=CC(=O)N1CCN(c2nc(OC[C@@H]3CCCN3C)nc3cc(-c4cccc5ccccc45)ncc23)C[C@@H]1CC#N` [Example 5, 2-[(2S)-4-[2-[[(2S)-1-methylpyrrolidin-2-yl]methoxy]-7-(1-naphthyl)pyrido[4,3-d]pyrimidin-4-yl]-1-prop-2-enoyl-piperazin-2-yl]acetonitrile] displayed an IC50 of 0.045 µM.
The value for `C=CC(=O)N1CCN(c2nc(OC[C@@H]3CCCN3C)nc3cc(-c4cc(O)cc5ccccc45)ncc23)CC1` [Example 6, 1-[4-[7-(3-hydroxy-1-naphthyl)-2-[[(2S)-1-methylpyrrolidin-2-yl]methoxy]pyrido[4,3-d]pyrimidin-4-yl]piperazin-1-yl]prop-2-en-1-one] was 0.3 µM; that for `C=CC(=O)N1CCN(c2nc(OC[C@@H]3CCCN3C)nc3c(F)c(-c4cccc5ccccc45)ncc23)C[C@@H]1CC#N` [Example 7, 2-[(2S)-4-[8-fluoro-2-[[(2S)-1-methylpyrrolidin-2-yl]methoxy]-7-(1-naphthyl)pyrido[4,3-d]pyrimidin-4-yl]-1-prop-2-enoyl-piperazin-2-yl]acetonitrile] was 0.007 µM; that for `C=C(F)C(=O)N1CCN(c2nc(OC[C@@H]3CCCN3C)nc3c(F)c(-c4cccc5ccccc45)ncc23)C[C@@H]1CC#N` [Example 8, 2-[(2S)-4-[8-fluoro-2-[[(2S)-1-methylpyrrolidin-2-yl]methoxy]-7-(1-naphthyl)pyrido[4,3-d]pyrimidin-4-yl]-1-(2-fluoroprop-2-enoyl)piperazin-2-yl]acetonitrile] was 0.132 µM.
The value for `C=CC(=O)N1C2CCC1CN(c1nc(OC[C@@H]3CCCN3C)nc3c(F)c(-c4cc(O)cc5ccccc45)ncc13)C2` [Example 9, 1-[3-[8-fluoro-7-(3-hydroxy-1-naphthyl)-2-[[(2S)-1-methylpyrrolidin-2-yl]methoxy]pyrido[4,3-d]pyrimidin-4-yl]-3,8-diazabicyclo[3.2.1]octan-8-yl]prop-2-en-1-one] was 0.142 µM; that for `C=CC(=O)N1CCN(c2nc(OC[C@@H]3CCCN3C)nc3c(F)c(-c4cccc5cccc(C)c45)ncc23)C[C@@H]1CC#N` [Example 10, 2-[(2S)-4-[8-fluoro-7-(8-methyl-1-naphthyl)-2-[[(2S)-1-methylpyrrolidin-2-yl]methoxy]pyrido[4,3-d]pyrimidin-4-yl]-1-prop-2-enoyl-piperazin-2-yl]acetonitrile] was 0.002 µM.
The value for `C=C(F)C(=O)N1CCN(c2nc(OC[C@@H]3CCCN3C)nc3c(F)c(-c4cccc5cccc(C)c45)ncc23)C[C@@H]1CC#N` [Example 11, 2-[(2S)-4-[8-fluoro-7-(8-methyl-1-naphthyl)-2-[[(2S)-1-methylpyrrolidin-2-yl]methoxy]pyrido[4,3-d]pyrimidin-4-yl]-1-(2-fluoroprop-2-enoyl)piperazin-2-yl]acetonitrile] was 0.084 µM; that for `Cc1cccc2cccc(-c3ncc4c(N5CCN(C(=O)/C=C/CF)[C@@H](CC#N)C5)nc(OC[C@@H]5CCCN5C)nc4c3F)c12` [Example 12, 2-[(2S)-1-[(E)-4-fluorobut-2-enoyl]-4-[8-fluoro-7-(8-methyl-1-naphthyl)-2-[[(2S)-1-methylpyrrolidin-2-yl]methoxy]pyrido[4,3-d]pyrimidin-4-yl]piperazin-2-yl]acetonitrile] was 0.031 µM; that for `C=C(F)C(=O)N1CCN(c2nc(OC[C@@H]3CC(F)(F)CN3C)nc3c(F)c(-c4cccc5cccc(C)c45)ncc23)C[C@@H]1CC#N` [Example 13, 2-((S)-4-(2-(((S)-4,4-difluoro-1-methylpyrrolidin-2-yl)methoxy)-8-fluoro-7-(8-methylnaphthalen-1-yl)pyrido[4,3-d]pyrimidin-4-yl)-1-(2-fluoroacryloyl)piperazin-2-yl)acetonitrile] was 0.127 µM.
With `C=C(F)C(=O)N1CCN(c2nc(OC[C@@H]3C[C@@H](F)CN3C)nc3c(F)c(-c4cccc5cccc(C)c45)ncc23)C[C@@H]1CC#N` [Example 14, 2-[(2S)-4-[8-fluoro-2-[[(2S,4R)-4-fluoro-1-methyl-pyrrolidin-2-yl]methoxy]-7-(8-methyl-1-naphthyl)pyrido[4,3-d]pyrimidin-4-yl]-1-(2-fluoroprop-2-enoyl)piperazin-2-yl]acetonitrile], the concentration for half-maximal inhibition (IC50) turned out to be 0.119 µM.
The value for `C=C(F)C(=O)N1CCN(c2nc(OC[C@@H]3C[C@@H](OC)CN3C)nc3c(F)c(-c4cccc5cccc(C)c45)ncc23)C[C@@H]1CC#N` [Example 15, 2-[(2S)-4-[8-fluoro-2-[[(2S,4R)-4-methoxy-1-methyl-pyrrolidin-2-yl]methoxy]-7-(8-methyl-1-naphthyl)pyrido[4,3-d]pyrimidin-4-yl]-1-(2-fluoroprop-2-enoyl)piperazin-2-yl]acetonitrile] was 0.05 µM; that for `C=C(F)C(=O)N1CCN(c2nc(OC[C@H]3CCCN3C)nc3c(F)c(-c4cccc5cccc(C)c45)ncc23)C[C@@H]1CC#N` [Example 16, 2-((S)-4-(8-fluoro-7-(8-methylnaphthalen-1-yl)-2-(((R)-1-methylpyrrolidin-2-yl)methoxy)pyrido[4,3-d]pyrimidin-4-yl)-1-(2-fluoroacryloyl)piperazin-2-yl)acetonitrile] was 0.118 µM; that for `Cc1cccc2cccc(-c3ncc4c(N5CCN(C(=O)/C=C/CF)[C@@H](CC#N)C5)nc(OC[C@@H]5C[C@@H](F)CN5C)nc4c3F)c12` [Example 17, 2-[(2S)-1-[(E)-4-fluorobut-2-enoyl]-4-[8-fluoro-2-[[(2S,4R)-4-fluoro-1-methyl-pyrrolidin-2-yl]methoxy]-7-(8-methyl-1-naphthyl)pyrido[4,3-d]pyrimidin-4-yl]piperazin-2-yl]acetonitrile] was 0.059 µM.
The value for `C=C(F)C(=O)N1CCN(c2nc(OC[C@@H]3CCCN3C)nc3c(F)c(-c4cccc5cccc(Cl)c45)ncc23)C[C@@H]1CC#N` [Example 18, 2-((S)-4-(7-(8-chloronaphthalen-1-yl)-8-fluoro-2-(((S)-1-methylpyrrolidin-2-yl)methoxy)pyrido[4,3-d]pyrimidin-4-yl)-1-(2-fluoroacryloyl)piperazin-2-yl)acetonitrile] was 0.05 µM; that for `C=CC(=O)N1CCN(c2nc(OC[C@@H]3CCCN3C)nc3c(F)c(-c4cccc5cccc(Cl)c45)ncc23)C[C@@H]1CC#N` [Example 19, 2-((S)-1-acryloyl-4-(7-(8-chloronaphthalen-1-yl)-8-fluoro-2-(((S)-1-methylpyrrolidin-2-yl)methoxy)pyrido[4,3-d]pyrimidin-4-yl)piperazin-2-yl)acetonitrile] was 0.002 µM.
The value for `C=CC(=O)N1CCN(c2nc(OC[C@@H]3CCCN3C)nc3c(F)c(-c4cncc5cccc(Cl)c45)ncc23)C[C@@H]1CC#N` [Example 20, 2-[(2S)-4-[7-(5-chloro-4-isoquinolyl)-8-fluoro-2-[[(2S)-1-methylpyrrolidin-2-yl]methoxy]pyrido[4,3-d]pyrimidin-4-yl]-1-prop-2-enoyl-piperazin-2-yl]acetonitrile] was 0.003 µM.
